Experimental findings from article PMC9927415, “Tyrosine Kinase Inhibitors Display Potent Activity against Cryptosporidium parvum” (Microbiology Spectrum, 2022) are described below.

One assay concerns the target T1, TESK1 (Homo sapiens, UniProt Q15569).
T1 construct: purchased DiscoverX (KINOMEscan)
Briefly: KINOMEscan competitive binding. As to conditions: n=1, read-out: Percent inhibition, TESK1.

A further assay deals with T2, LYN (Homo sapiens, UniProt P07948).
T2 construct: purchased DiscoverX (KINOMEscan)
The experiment in a line: KINOMEscan competitive binding. The note with it: 10 µM, n=1; kinase LYN; read-out: Percent inhibition LYN. The method, boiled down: (§1)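 T7 phage-fused kinases; compound displaces immobilized ATP-site probe ligand; bead-bound kinase quantified; % inhibition reported.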

For the next assay, the target named is T3, KDR (VEGFR2) (Homo sapiens, UniProt P35968).
T3 construct: purchased DiscoverX (KINOMEscan)
The experiment in a line: KINOMEscan competitive binding. The note with it: KINOMEscan, 10 µM, n=1; read-out: Percent inhibition, VEGFR2. The method, boiled down: as §1

A further assay addresses T4, CDK2 (Homo sapiens, UniProt P24941).
T4 construct: purchased DiscoverX (KINOMEscan)
Briefly: KINOMEscan competitive binding. An outline of the steps: as §1

A further assay has as its target T5, CSNK2A1 (Homo sapiens, UniProt P68400).
T5 construct: purchased DiscoverX (KINOMEscan)
Briefly: KINOMEscan competitive binding. The note with it: 10 µM, n=1; kinase CSNK2A1; read-out: Percent inhibition CSNK2A1. An outline of the steps:
as §1

For the next assay, the target named is T6, EGFR (Homo sapiens, UniProt P00533).
T6 construct: purchased DiscoverX (KINOMEscan)
The experiment in a line: KINOMEscan competitive binding. The note with it: 10 µM, n=1; kinase EGFR; read-out: Percent inhibition EGFR. An outline of the steps: as §1

The next assay concerns the target T7, FLT3 (Homo sapiens, UniProt P36888).
T7 construct: purchased DiscoverX (KINOMEscan)
T7 sequence (P36888 27-993): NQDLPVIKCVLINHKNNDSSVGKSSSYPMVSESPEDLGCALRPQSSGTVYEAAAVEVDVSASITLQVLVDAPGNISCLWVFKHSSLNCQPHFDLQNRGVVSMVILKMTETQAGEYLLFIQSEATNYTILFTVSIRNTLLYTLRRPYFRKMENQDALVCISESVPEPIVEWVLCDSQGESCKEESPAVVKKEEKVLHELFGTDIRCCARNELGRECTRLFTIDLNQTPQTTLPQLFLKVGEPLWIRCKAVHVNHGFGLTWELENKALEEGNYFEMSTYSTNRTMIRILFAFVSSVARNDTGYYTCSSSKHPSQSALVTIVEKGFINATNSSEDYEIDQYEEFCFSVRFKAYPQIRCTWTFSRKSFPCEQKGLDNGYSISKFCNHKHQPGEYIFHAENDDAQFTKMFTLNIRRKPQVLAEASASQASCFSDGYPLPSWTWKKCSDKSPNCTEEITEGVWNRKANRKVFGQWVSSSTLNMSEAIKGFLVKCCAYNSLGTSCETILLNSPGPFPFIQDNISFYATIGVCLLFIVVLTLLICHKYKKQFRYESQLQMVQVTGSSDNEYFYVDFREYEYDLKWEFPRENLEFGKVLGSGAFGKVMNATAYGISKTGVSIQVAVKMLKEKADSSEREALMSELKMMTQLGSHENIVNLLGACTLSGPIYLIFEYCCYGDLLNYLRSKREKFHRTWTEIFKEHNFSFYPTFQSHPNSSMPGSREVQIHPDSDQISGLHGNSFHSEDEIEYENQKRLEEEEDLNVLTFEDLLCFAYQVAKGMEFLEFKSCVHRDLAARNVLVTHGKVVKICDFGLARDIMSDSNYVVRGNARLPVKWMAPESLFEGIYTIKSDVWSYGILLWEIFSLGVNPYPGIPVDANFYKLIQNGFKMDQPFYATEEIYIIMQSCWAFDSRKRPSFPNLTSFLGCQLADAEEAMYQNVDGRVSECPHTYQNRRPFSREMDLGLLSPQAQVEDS
Briefly: KINOMEscan competitive binding. The note with it: 10 µM, n=1; kinase FLT3; read-out: Percent inhibition FLT3. An outline of the steps:
as §1

For the next assay, the target named is T8, CDK5 (Homo sapiens, UniProt Q00535).
T8 construct: purchased DiscoverX (KINOMEscan)
The experiment in a line: KINOMEscan competitive binding. An outline of the steps: as §1

The target in a further assay is T9, PDGFRβ (Homo sapiens, UniProt P09619).
T9 construct: purchased DiscoverX (KINOMEscan)
Briefly: KINOMEscan competitive binding. The note with it: KINOMEscan, 10 µM, n=1; read-out: Percent inhibition, PDGFRB. The method, boiled down: as §1

A further assay deals with T10, KIT (Homo sapiens, UniProt P10721).
T10 construct: purchased DiscoverX (KINOMEscan)
Briefly: KINOMEscan competitive binding. An outline of the steps:
as §1

Assay [1] deals with T11, panel of 203 kinases (Homo sapiens, UniProt P53667).
T11 construct: purchased DiscoverX (KINOMEscan)
The experiment in a line: KINOMEscan competitive binding, whole panel. The note with it: 10 µM, n=1; kinase LIMK1; read-out: Percent inhibition LIMK1. The source says:
(§2) The kinases were expressed as fusions to T7 bacteriophage. This is a sensitive, competitive binding assay where test compounds were used to displace immobilized ATP-site binding probe ligands from kinases of interest. The amount of kinase that remained bound to the immobilized probe ligands on the solid support was quantified. Percentage inhibition data were was plotted on kinome trees using the web-based tool KinMap (http://www.kinhub.org/kinmap) ([60]).

The target of assay [2] is T12, panel of 203 kinases (Homo sapiens, UniProt Q9Y4K4).
T12 construct: purchased DiscoverX (KINOMEscan)
The experiment in a line: KINOMEscan competitive binding, whole panel. The note with it: 10 µM, n=1; kinase MAP4K5; read-out: Percent inhibition MAP4K5.
From the text: as §2

The target of assay [3] is T13, panel of 203 kinases (Homo sapiens, UniProt P19784).
T13 construct: purchased DiscoverX (KINOMEscan)
Briefly: KINOMEscan competitive binding, whole panel. As to conditions: 10 µM, n=1; kinase CSNK2A2; read-out: Percent inhibition CSNK2A2.
From the text: as §2

Assay [4] deals with T14, panel of 203 kinases (Homo sapiens, UniProt Q9UIK4).
T14 construct: purchased DiscoverX (KINOMEscan)
The experiment in a line: KINOMEscan competitive binding, whole panel. As to conditions: 10 µM, n=1; kinase DAPK2; read-out: Percent inhibition DAPK2.
From the text: as §2

Assay [5] addresses T15, panel of 203 kinases (Homo sapiens, UniProt Q13554).
T15 construct: purchased DiscoverX (KINOMEscan)
The experiment in a line: KINOMEscan competitive binding, whole panel. The note with it: 10 µM, n=1; kinase CAMK2B; read-out: Percent inhibition CAMK2B.
From the text: as §2

Assay [6] deals with T16, panel of 203 kinases (Homo sapiens, UniProt P53778).
T16 construct: purchased DiscoverX (KINOMEscan)
T16 sequence (P53778 1-367): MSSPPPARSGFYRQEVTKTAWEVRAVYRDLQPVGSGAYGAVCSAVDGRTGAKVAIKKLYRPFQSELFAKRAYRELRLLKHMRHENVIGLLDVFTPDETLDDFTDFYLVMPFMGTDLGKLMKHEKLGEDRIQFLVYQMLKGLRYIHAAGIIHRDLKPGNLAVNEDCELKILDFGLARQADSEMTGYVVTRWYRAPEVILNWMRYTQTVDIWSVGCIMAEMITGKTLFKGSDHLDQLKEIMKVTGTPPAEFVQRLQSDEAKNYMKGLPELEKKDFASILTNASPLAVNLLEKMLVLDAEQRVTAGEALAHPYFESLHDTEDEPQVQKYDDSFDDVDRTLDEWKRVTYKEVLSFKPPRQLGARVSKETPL
The experiment in a line: KINOMEscan competitive binding, whole panel. As to conditions: 10 µM, n=1; kinase p38-gamma; read-out: Percent inhibition p38-gamma.
From the text: as §2

The mark [7] stands for this setting: 10 µM, n=1, kinase CDK2, read-out: Percent inhibition CDK2.
Where [8] appears, read: 10 µM, n=1, kinase CDK5, read-out: Percent inhibition CDK5.
[9] abbreviates: 10 µM, n=1, kinase KIT, read-out: Percent inhibition KIT.

For orientation: inhibition means the percentage by which the read-out fell short of the control.

SMILES strings stand for the structures. Read-outs that look alike come from different tables or passages of the source.

Take `Cc1ccc(O)cc1N(C)c1ccnc(Nc2cccc(S(N)(=O)=O)c2)n1` [Compound 4]: the inhibition at 10 µM at TESK1 is 79.9%; on LYN it was 99.8%; on KDR (VEGFR2), 83.7%; at CDK2 (setting [7]), 0%; at CSNK2A1, 0%; on EGFR it was 95.8%. The inhibition at 10 µM at FLT3 was 92.3%; on CDK5 (setting [8]), 0%; on PDGFRβ, 100%; at KIT (setting [9]), 100%; at panel of 203 kinases [1] it was 91.9%; at panel of 203 kinases [2], 99.1%. For the same molecule, the inhibition at 10 µM on panel of 203 kinases [3] was 0%; at panel of 203 kinases [4], 0%; on panel of 203 kinases [5], 0%; at panel of 203 kinases [6], 93%.

In the case of `COc1ccc(Nc2nccc(-c3cnn4ncccc34)n2)cc1` [Compound 2], the inhibition at 10 µM was 0% at TESK1; 0% at LYN; 92.9% on KDR (VEGFR2); more than 99% on CDK2 (10 μM, n = 1, read-out: percent inhibition CDK2); 99.9% on CDK2 (setting [7]); 82% on CSNK2A1. Moreover, the inhibition at 10 µM at EGFR is 0%; on FLT3 it was 99.3%; on CDK5 (10 μM, n = 1, read-out: percent inhibition CDK5) it was more than 99%; at CDK5 (setting [8]) it was 99.8%; at PDGFRβ, 100%; at KIT (setting [9]) it was 100%. The inhibition at 10 µM was 90.5% on panel of 203 kinases [1]; 0% on panel of 203 kinases [2]; 74.2% on panel of 203 kinases [3]; 0% on panel of 203 kinases [4]; 73.9% on panel of 203 kinases [5]; 88.4% at panel of 203 kinases [6].

Consider `Nc1ncc2c(-c3ccncc3)c[nH]c2n1` [Compound 11], for which the inhibition at 10 µM at TESK1, at LYN, at KDR (VEGFR2), on CDK2 (setting [7]), at CSNK2A1 and at EGFR was 0% throughout. The inhibition at 10 µM was 94.5% at FLT3; 0% at CDK5 (setting [8]); 93.2% at PDGFRβ; not below 99% on KIT (10 μM, n = 1, read-out: percent inhibition KIT); 99.3% on KIT (setting [9]); 0% on panel of 203 kinases [1]. For the same molecule, the inhibition at 10 µM on panel of 203 kinases [2] stood at 0%; at panel of 203 kinases [3] it was 0%; on panel of 203 kinases [4] it was 0%; at panel of 203 kinases [5], 85.7%; on panel of 203 kinases [6] it was 0%.

Regarding `COc1cc(Nc2nccc(-c3sc(N)nc3-c3cccc(NC(=O)c4c(F)cccc4F)c3)n2)cc(OC)c1OC` [Compound 7], the inhibition at 10 µM on TESK1 was determined as 100%; on LYN, 100%; on KDR (VEGFR2), 89.5%; on CDK2 (setting [7]), 0%; on CSNK2A1 it was 0%; on EGFR, 100%. The inhibition at 10 µM on FLT3 is 99.8%; at CDK5 (setting [8]), 0%; on PDGFRβ, 100%; on KIT (setting [9]), 100%; at panel of 203 kinases [1] it was 100%; at panel of 203 kinases [2], 99.9%. Also, the inhibition at 10 µM at panel of 203 kinases [3], at panel of 203 kinases [4], on panel of 203 kinases [5] and at panel of 203 kinases [6] was 0% throughout.
